The subject of series [1] is patients with advanced solid tumors. Nature of the series: Phase 1 3 + 3 dose escalation: DLTs and MTD determination. Type of series: in vivo. As for the experimental part: The primary objective of the study was to determine the MTD of bimiralisib administered according to three different dosing schedules. Bimiralisib was formulated as 20 mg and 80 mg capsules for oral administration. The first dosing schedule to be evaluated was continuous (once daily) dosing over a 21-day cycle. […] Patients enrolled in the continuous schedule and intermittent schedule A received a single lead-in dose, administered on […] prior to the start of the first 21-day treatment cycle, to characterize single-dose pharmacokinetics. Based on the previous first-in-human trial with bimiralisib, together with the expected toxicity profile of PI3K/mTOR inhibitors, the starting dose (dose-level 1) of bimiralisib in Study PQR309-003 was set at 80 mg daily.
Enrollment of cohorts into the dose escalation followed a typical 3 + 3 design, with escalation/de-escalation based on the dose-limiting toxicities observed as described in Table 1 and Table 2. Up to 5 dose levels were planned in the continuous schedule to a maximum of 180 mg daily. For the intermittent schedules, up to 7 dose levels were planned, to a maximum of 240 mg daily. One dose level for de-escalation was planned for all schedules. Patient cohorts, consisting initially of three patients, were enrolled depending on the safety and tolerability of the initial cohort. Patients were treated until disease progression, unacceptable toxicity, patient’s request for withdrawal, investigator judgment, or death, whichever came first.
Safety was monitored by physical examination, vital signs, weight, electrocardiogram, ECOG performance status, laboratory evaluations (including glucose monitoring), and patient self-reported mood questionnaires, as well as AEs. All AEs were coded with NCI Common Terminology Criteria for Adverse Events (CTCAE) v4.03 [27]. The MTD was defined as the maximum dose level at which ≤1/6 patients have DLTs. A DLT was defined by the occurrence of grade 3 or 4 AE that is possibly, probably, or definitely related to bimiralisib within the first 21 days of treatment. Bimiralisib treatment was interrupted if patients experienced any DLTs. If the patient derived benefit from the treatment as determined by the investigator, treatment could be resumed at a lower dose in agreement with the study sponsor.

Series [2] concerns head and neck squamous cancer with loss of function NOTCH1T1997M mutations. The following applies: eight patients, intermittent bimiralisib regimen; cited from earlier work.

Each structure is given as a SMILES string. Entries after “also recorded” stand apart in the source; their conditions may differ.

The values below come from article PMC10969742, “A Phase I Study of the Oral Dual-Acting Pan-PI3K/mTOR Inhibitor Bimiralisib in Patients with Advanced Solid Tumors” (Cancers, 2024).

Consider `Nc1cc(C(F)(F)F)c(-c2nc(N3CCOCC3)nc(N3CCOCC3)n2)cn1` [bimiralisib, 5-(4,6-Dimorpholino-1,3,5-triazin-2-yl)-4-(trifluoromethyl)pyridin-2-amine], for which, in series [1] (continuous schedule (once daily)), the “Maximum tolerated dose (MTD)” value turned out to be 80 mg. In addition, in series [1] (in vivo), the “Dose-limiting toxicity (DLT), kind” value is given as “grade three fatigue” and the “Patients with dose interruptions or discontinuation due to treatment-related AEs during first 21-day dosing cycle” value was “Four of these five”. Moreover, the “Maximum tolerated dose (MTD)” value in series [1] (intermittent schedules A and B, up to 200 mg) is “No MTD was reached; also recorded: neither intermittent schedule reached MTD”. In series [2], the “Confirmed PR, number of patients” value is given as “one” and the “SDs, number of patients” value is reported as “three”.
